Source: PubChem BioAssay AID449762 (Southern Research Specialized Biocontainment Screening …, 2010)
pIC50: −log10 of the molar value. Results filed as inconclusive are left out.

Tested on: M. tuberculosis H37Rv growth inhibition, 7H9 media
Experiment: M. tuberculosis growth inhibition, HTS (AID 449762);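 further: bacterial growth assessed after seven days of incubation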
Details: for IC90: measured here: IC90 growth inhibition

| Structure (SMILES) | pIC50 | IC90 [µM] |
| --- | --- | --- |
| CNC(=S)/N=C/NOCc1c(Cl)cccc1Cl | 5.26 | 12.9 |
| CCOc1ccc(N2CCc3c(C)nc(SC)nc32)cc1 | > 6.70 | > 100 |
| Oc1ccccc1/C=N/Nc1ccnc(SCc2ccccc2)n1 | 5.84 | 1.55 |
| CC1=C(C)C(=O)C(CCCCC#CCCCC#CCO)=C(C)C1=O | 4.96 | 18.7 |
| CC(O)CNc1nc2ccccc2n1-c1ncnc2sc3c(c12)CCC3 (stereo not drawn) | 4.56 | 36.6 |
| Cc1nn(-c2ccccc2)c(N)c1N=Nc1ccc(Cl)cc1 | 4.56 | 41.5 |
| Cc1ccc(NC(=O)COc2ccc(-n3ccnc3)cc2)cc1Cl | 4.61 | 28.8 |
| CSc1ccc(C(=O)C2CCCN(C(=O)c3ccc4c(c3)no[n+]4[O-])C2)cc1 (stereo not drawn) | 6.27 | 1.57 |
| OCC1(Cc2cccc(Cl)c2)CCCN(Cc2ccc3cc(F)ccc3n2)C1 (stereo not drawn) | 4.34 | 52.1 |
| COc1ccc(NC(=O)NC(C)C2CC3CCC2C3)cc1 (stereo not drawn) | 4.63 | 27.1 |
| O=C(Nc1nc2ccc(SC(F)F)cc2s1)c1ccc(NS(=O)(=O)c2ccc(F)c(F)c2)cc1 | 4.78 | 24.7 |
| O=C(CSc1nnc(-c2cccs2)o1)NCC1CN(Cc2ccccc2)CCO1 (stereo not drawn) | 5.28 | 15.2 |
| CCOC(=O)CNC(=O)c1sc2ncnc(N3CCc4ccccc4C3)c2c1C | 4.27 | > 100 |
| Cc1cc(C2N=C(N)Nc3nc4ccccc4n32)c(C)n1-c1ccccc1Cl (stereo not drawn) | 4.92 | 16.6 |
| Cc1nnc(SCc2ccccc2Cl)n(N)c1=O | 6.42 | 5.3 |
| Cn1nc(-c2ccccc2F)c2cc(C(=O)Nc3ccc4c(c3)OCCO4)sc21 | 4.75 | 35.5 |
| CCOc1[nH]n(-c2ccccc2)c(=O)c1C=Nc1ccc(OC)cc1 | 4.44 | > 100 |
| COC(=O)CCc1sc(Nc2ccc(Br)cc2)nc1-c1ccc(OC)cc1 | 4.59 | 44.1 |
| c1ccc2c(c1)CCN(c1nc3cc4c(cc3s1)OCCO4)C2 | 5.13 | 16.9 |
| Cc1nn(CCc2nn[nH]n2)c2nc(-c3ccc(Br)cc3)cc(C(F)(F)F)c12 | 5.33 | 10.8 |
| CCCSc1nn2c(=O)c3ccccc3nc2s1 | 5.08 | 25.2 |
| COc1ccc(-n2cc(CNCCc3cscn3)c(-c3ccccc3Cl)n2)cc1 | 4.59 | 29.7 |
| O=C(NNC1CC(=O)N(c2ccc(Br)cc2)C1=O)c1ccccn1 (stereo not drawn) | 5.23 | 13.6 |

| Structure (SMILES) | pIC50 | IC90 [µM] |
| --- | --- | --- |
| CC(C)CS(=O)(=O)C1=NN2C(=N)/C(=C\c3ccc(OC(=O)c4ccco4)cc3)C(=O)N=C2S1 | 4.69 | 25.9 |
| O=C1C2(Cl)C3(Cl)C4(Cl)C(Cl)(Cl)C5(Cl)C3(Cl)C1(Cl)C5(Cl)C24Cl (stereo not drawn) | 4.33 | 53 |
| Cc1ccc(/C(N)=N/OC(=O)N2c3ccccc3Sc3ccccc32)cc1 | 4.28 | > 100 |
| CSc1nsc(SCC(=O)Nc2ccc(F)cc2F)n1 | 4.70 | 63.4 |
| CCOC(=O)C(C)Oc1ccc(NC(=O)C(Cl)(Cl)Cl)cc1 (stereo not drawn) | 5.62 | 5.08 |
| O=C(CCCCCNc1nc(=S)[nH]c2ccccc12)N1CCN(c2ccccn2)CC1 | 4.39 | > 100 |
| CC(C)c1ccc(N2C(=O)NC(=O)/C(=C\C=C\c3ccco3)C2=O)cc1 | 4.66 | 35.7 |
| CCOC1OC(=O)C(Cl)=C1Nc1ccccc1C (stereo not drawn) | 5.54 | 6.18 |
| O=C(C=C=Nc1ccccc1)C(=O)N=C=Cc1ccccc1 | 5.27 | 13.1 |
| CCOc1ccc2nc(/N=C/c3nc(-c4ccccc4)oc3O)sc2c1 |  | > 100 |
| CCOC(=O)c1nnc(-c2ccccc2)nc1Sc1ccccc1Cl | 4.68 | 49.2 |
| Cc1ccc(C(=O)/C=C/C(=O)c2ccc(C)cc2)cc1 | 5.69 | 7.63 |
| CCc1ccc2c(c1)/C(=C/C(=O)c1cccs1)C(=O)N2 | 5.97 | 3.19 |
| c1ccc2nc(-c3ccc(-n4ccnc4)cc3)ccc2c1 | 4.63 | 25.9 |
| CON(C)c1nc(C2CCCCC2)c2cc(C)ccc2n1 | 4.22 | 75.5 |
| CC1CC2=C(CC1/C=N/NC(N)=S)C(C)(C)CCC2 (stereo not drawn) | 4.84 | 24.6 |
| CCOC(=O)C1=NOC(CNc2ncc(C(F)(F)F)cc2Cl)C1 (stereo not drawn) | 5.15 | 14.1 |
| CCc1ccc(-c2csc(-c3c[nH]c4ccccc34)n2)cc1 | 4.97 | 21.7 |
| Cn1ccnc1C(O)c1cc(C(C)(C)C)c(O)c(C(C)(C)C)c1 (stereo not drawn) |  | > 100 |
| COc1ccc(NC(=O)CN(C)CC(=O)Nc2sc3c(c2C(N)=O)CCC3)cc1 | 4.30 | 98 |
| Cc1ccc(NC(=S)N(CCCN2CCCC2)Cc2cccn2Cc2ccc(Cl)cc2)cc1C | 4.07 | > 100 |
| CC(C)(C)c1ccc(C(=O)NC(=S)NNC(=O)COc2ccccc2)cc1 | 5.47 | 8.56 |
| CCOC(=O)c1sc2ncnc(NCC(c3cccs3)N(C)C)c2c1C (stereo not drawn) | 4.46 | 71.6 |

| Structure (SMILES) | pIC50 | IC90 [µM] |
| --- | --- | --- |
| CCCSC1=C(C#N)C(c2ccc(Cl)cc2Cl)CC(=O)N1 (stereo not drawn) |  | > 25 |
| CCCc1ncc(CN2CCCC(C(=O)Nc3ccc(-c4cccc(OC)c4)cc3)C2)cn1 (stereo not drawn) |  | > 100 |
| COc1ccc2c(c1)CC/C(=C\C=C\c1ccccc1OC)C2=O | 5.11 | 17.8 |
| O=C(/C=C/c1ccco1)Oc1ccc(C(=S)N2CCOCC2)cc1 | 4.41 | > 100 |
| Oc1ccccc1N=Cc1ccc[nH]1 | 5.42 | 7.96 |
| Cc1ccc(Nc2nc(N)c([N+](=O)[O-])c(N3CCCC(C)C3)n2)cc1C (stereo not drawn) | 4.00 | > 100 |
| COc1ccc(-c2cn(Cc3ccc(C(=O)NCc4ccc(C)cc4)cc3)c(C(C)N)n2)cc1 (stereo not drawn) | 4.33 | 53.2 |
| c1ccc(-c2c3ccccc3nc3[nH]c4ccccc4c23)cc1 | 4.20 | > 100 |
| O=C(O)c1[nH]c(=O)[nH]c(=O)c1F | 5.34 | 14.2 |
| CN(C)c1ccc(/C=C2\N=C(C(C)(C)C)OC2=O)cc1 | 4.84 | 34.5 |
| CCN(CC)CCNC(=O)c1ccc(NC(=O)c2cn(-c3ccccc3)nc2-c2cccs2)cc1 | 4.72 | 27.1 |
| O=C(c1ccccc1)c1ccc(OCCOCCN2CCN(Cc3ccccc3)CC2)cc1 | 4.63 | 37.5 |
| CCCc1cc(NC(=O)CCl)n(-c2ccccc2)n1 | 6.15 | 2.29 |
| CC[C@@H](C)[C@H](CN[C@H](CNC)C(C)C)NC[C@@H](C)c1ccc(CC(C)C)cc1 | 4.95 | 12.6 |
| Cc1ccc(NC(=O)C2=C(O)CCn3c2nc2ccccc23)cc1 | 5.92 | 20.6 |
| CCOc1cc(C=O)cc(N=Nc2cccc([N+](=O)[O-])c2)c1O | 5.40 | 11.6 |
| Cc1cc(NC(=O)c2sccc2C)n(-c2nc3ccccc3[nH]2)n1 | 5.53 | > 100 |
| C=C(C)C(=O)OCC(O)COc1ccc(C(C)(C)c2ccc(OCC(O)COC(=O)C(=C)C)cc2)cc1 (stereo not drawn) | 4.42 | 48.5 |
| O=C(/C=C/c1c(F)cccc1Cl)c1ccc(F)cc1 | 4.62 | 34.4 |
| C/C(=C\C(=S)Nc1ccccc1)Nc1ccc2ccccc2c1 | 4.39 | 52.9 |
| Cc1ccc(C(=O)Nc2ccc3c4c(cccc24)CC3)cc1[N+](=O)[O-] | > 6.70 | > 100 |
| CCCCCOc1ccc(NC2=CC(=O)CCC2)cc1 | 4.28 | > 100 |
| CCSc1ccc2c(c1)N(CCCN1CCN(C)CC1)c1ccccc1S2 | 4.72 | 26.5 |

| Structure (SMILES) | pIC50 | IC90 [µM] |
| --- | --- | --- |
| CN(CCO)c1cc(Sc2nc3ccccc3s2)c2nonc2c1[N+](=O)[O-] | 4.57 | > 100 |
| CCCCCC(O)c1cccc(OCc2ccc3ccccc3n2)c1 (stereo not drawn) | 4.35 | 50.5 |
| Cc1ccc(-n2nc(C)c3c(C)c(CCC(=O)Nc4ccc(CN5CCCC5)cc4)c(C)nc32)cc1 | 4.87 | 19.9 |
| Cn1cc(/C=C2\C(=O)NC(=O)N(c3ccccc3)C2=O)c2ccccc21 | 4.97 | 24.2 |
| c1ccc(C[C@H]2CN=C(Nc3ccccc3)N2CCCC2CCCC2)cc1 | 4.50 | 48.5 |
| CCCCCCCCNC(=O)CCNC(=O)c1ccc(C(C)(C)C)cc1 | 4.45 | 44.6 |
| O=C1CCC(=O)N1CNc1ccc(Oc2ccccc2)cc1 |  | > 100 |
| c1ccc(Nc2nc(N3CCCCC3)nc(N3CCNCC3)n2)cc1 | 4.34 | 68.9 |
| CC(=O)N1C(Nc2ccc(Cl)cc2)CCN1c1ccccc1 (stereo not drawn) |  | > 100 |
| Cc1cc(=O)n2[nH]c(Nc3cccc(Cl)c3)nc2n1 | 4.69 | 33 |
| COc1ccc(-c2c[n+]3c4n2CCCCC4=C(c2ccccc2)C3)cc1 | 4.45 | 43.7 |
| CC1CCC/C(=N\NC(=S)Nc2ccccc2)C1 (stereo not drawn) | 4.36 | 67.5 |
| CCCOP(=O)(OCCC)c1c([N+](=O)[O-])cc(C(F)(F)F)cc1[N+](=O)[O-] | 5.41 | 6.52 |
| Cc1ccc(CN2CCC(c3cc(-c4ccc(Cl)cc4)n[nH]3)CC2)cc1 | 4.94 | 14.8 |
| COc1cccc(/C=N/Nc2ncnc3scc(-c4ccccc4)c23)c1O | 5.80 | 3.35 |
| CCCOc1ccc(C(=O)NC(=S)NCc2cccnc2)cc1 | 4.67 | 28 |
| Cc1nc(S/C(=C/c2ccc(-c3ccc(Cl)cc3)o2)C(=O)O)n[nH]1 | 4.74 | > 100 |
| COC(=O)c1ccc(Cn2cc(C(F)(F)F)cc([N+](=O)[O-])c2=O)cc1 | > 6.70 | 23.7 |
| COc1ccccc1NC(=O)c1ccc(NC(=O)CSc2nnnn2C)cc1 | 5.54 | 13.8 |
| COc1cc(OC)nc(Oc2ccccc2C(=O)Oc2ccc(Cl)cc2)n1 | 4.16 | > 100 |
| COc1ccc(CCNc2nc(N3CCCCC3)nc(N3CCCCC3)n2)cc1OC | 4.76 | 22.5 |
| COc1ccc(-c2ccnc3nc(N4CCN(c5ccccc5)CC4)nn23)cc1 | 4.44 | 47.9 |
| CN(c1ccccc1)c1ccc(/C=C/[N+](=O)[O-])cc1 | 5.05 | 16.9 |
